Values of other authors as cited in patent US8603996B2, “Modular aptamer-regulated ribozymes” (California Institute of Technology, priority 2006, dated 2013).

System: theophylline aptamer

binding affinity lower than theophylline: 27 fold
SMILES: O=c1[nH]c(=O)c2[nH]cnc2[nH]1 [xanthine]
